This series deals with BTECs. Description: Activity of mitochondrial ETC complexes I-IV in BTECs. The series is classed as cell-based, human. To be noted: FLVCR1a-silenced vs scramble shRNA BTECs. From the text:
Results were expressed as nmol NAD*/min/mg mitochondrial protein for complex I, nmol reduced cytochrome c/min/mg mitochondrial protein for complexes II-III, nmol oxidized cytochrome c/min/mg mitochondrial protein for complex IV. Data represent mean±SEM, n=3. For statistical analyses, an unpaired Student's t-test was used; *=p<0.05, **=p<0.01, *=p<0.001. […] Results are expressed as nmol/mg mitochondrial proteins. Data represent mean±SEM, n=3. For statistical analyses, an unpaired Student's t-test was used; *=p<0.05. […] Results are expressed as pmol CO2/h/mg protein. Data represent mean±SEM, n=3. For statistical analyses, an unpaired Student's t-test was used; **=p<0.01. […] Results were expressed as nmol NAD*/min/mg mitochondrial protein for complex I, nmol reduced cytochrome c/min/mg mitochondrial protein for complexes II-III, nmol oxidized cytochrome c/min/mg mitochondrial protein for complex IV. […] Results are expressed as nmol/mg mitochondrial proteins. […] Results are expressed as pmol CO2/h/mg protein. […] (H) TCA cycle enzymes activities are reported in boxes and expressed as mU/mg mitochondrial proteins. […] Results were expressed as nmol NAD^+/min/mg mitochondrial protein for complex I, nmol reduced cytochrome c/min/mg mitochondrial protein for complexes II-III, nmol oxidized cytochrome c/min/mg mitochondrial protein for complex IV. […] Results are expressed as nmol/mg mitochondrial proteins. […]

For the substance “FLVCR1a shRNA: shRNA specifically down-regulating FLVCR1a without targeting FLVCR1b; pLKO.1 lentiviral clone TRCN0000059599, antisense SEQ ID No.: 2 (antisense TTGCTAATGATGCTGTACTGG; sense CCAGTACAGCATCATTAGCAA)”, the “activity of ETC complexes” value is “enhanced activity of ETC complexes”.
